How the values were obtained:
[1] = system: α-Glucosidase (E.C.3.2.1.20); assay: α-Glucosidase enzyme inhibition assay (PNP-G substrate, spectrophotometric); type: biochemical; conditions: for α-glucosidase inhibition (in words): compared with standards acarbose and deoxynojirimycin; for IC50: pH 6.9, 37° C., 0.7 mM PNP-G, 500 m units/mL enzyme, read-out: α-glucosidase inhibitory activity IC50
Procedure: α-Glucosidase (E.C.3.2.1.20) enzyme inhibition assay has been performed according to the slightly modified method of Matsui et al., (Matsui T., Yoshimoto C., Osajima K., Oki T., and Osajima Y., Biosci. Biotech. Biochem., 1996, 60, 2019-2022). α-Glucosidase (E.C.3.2.1.20) from Saccharomyces species, purchased commercially (Wako 076-02841; Wako Pure Chemical Industries Ltd., 1-2 Doshomachi 3-Chome, Chuo-ku, Osaka 540-8605, Japan). The enzyme inhibition was measured spectrophotometrically at pH 6.9 and at 37° C. using 0.7 mM p-nitrophenyl α-D glucopyranoside (PNP-G) as a substrate and 500 m units/mL enzyme, in 50 mM sodium phosphate buffer containing 100 mM NaCl. […] The increment in absorption at 400 nm, due to the hydrolysis of PNP-G by α-glucosidase, was monitored continuously on microplate spectrophotometer (Spectra Max Molecular Devices, USA).

Bacillus subtilis = assay: Antibacterial screening, agar well diffusion; type: cell-based; conditions: 100 μL of 3 mg/3 ml DMSO sample per 6-mm well, 37° C., 24 h
From the text: (§1) As a negative control, DMSO was used.

Pseudomonas aeruginosa = assay: Antibacterial screening, agar well diffusion; type: cell-based; conditions: for Inhibition zone, PA (Pseudomonas aeruginosa): 100 μL of 3 mg/3 ml DMSO sample per 6-mm well, 37° C., 24 h
From the text: as §1

Salmonella typhi = assay: Antibacterial screening, agar well diffusion; type: cell-based; conditions: for Inhibition zone, ST (Salmonella typhi): 100 μL of 3 mg/3 ml DMSO sample per 6-mm well, 37° C., 24 h
Shigella flexneri = assay: Antibacterial screening, agar well diffusion; conditions: 100 μL of 3 mg/3 ml DMSO sample per 6-mm well, 37° C., 24 h
Escherichia coli = assay: Antibacterial screening, agar well diffusion; type: cell-based; conditions: 100 μL of 3 mg/3 ml DMSO sample per 6-mm well, 37° C., 24 h
From the text: as §1

Staphylococcus aureus = assay: Antibacterial screening, agar well diffusion; type: cell-based; conditions: for Inhibition zone, SA (Staphylococcus aureus): 100 μL of 3 mg/3 ml DMSO sample per 6-mm well, 37° C., 24 h
From the text: as §1

[2] = system: multidrug-resistant (MDR) clinically relevant bacteria; conditions: cited from earlier work
[3] = autoxidation and FeCl3- and EDTA-mediated oxidation of linoleic acid; cited from earlier work

| Compound | α-glucosidase inhibition (in words) [1] | IC50 [1] | Inhibition zone, BS (Bacillus subtilis) (Bacillus subtilis) | activity against Pseudomonas aeruginosa (in words) (Pseudomonas aeruginosa) | Inhibition zone, PA (Pseudomonas aeruginosa) (Pseudomonas aeruginosa) | activity against Salmonella typhi (in words) (Salmonella typhi) | Inhibition zone, ST (Salmonella typhi) (Salmonella typhi) | Inhibition zone, SF (Shigella flexneri) (Shigella flexneri) | Inhibition zone, EC (Escherichia coli) (Escherichia coli) | antibacterial activity against Staphylococcus aureus (in words) (Staphylococcus aureus) | Inhibition zone, SA (Staphylococcus aureus) (Staphylococcus aureus) | antibacterial activity against MDR bacteria (in words) [2] | antioxidant properties (in words) [3] |
| --- | --- | --- | --- | --- | --- | --- | --- | --- | --- | --- | --- | --- | --- |
| CC(C)C(=O)c1c(O)c(C(C2=C(O)C(C)(C)C(=O)C(C)(C)C2=O)C(C)C)c(O)c2c1OC1=C(C(=O)C(C)(C)C(=O)C1(C)C)C2C(C)C (centres unmarked) [Compound 3, Myrtucommulone-C] | highest activity | 35.4 ± 1.15 µM |  |  |  |  |  |  |  |  |  |  |  |
| CC1(C)CC[C@]2(C(=O)O)CC[C@]3(C)C(=CC[C@@H]4[C@@]5(C)CC[C@H](O)C(C)(C)[C@@H]5CC[C@]43C)[C@@H]2C1 [Compound 14, oleanolic acid] |  |  | 15 mm | significant activity | 16 mm | significant activity | 16 mm | 10 mm |  |  |  |  |  |
| CC(C)C(=O)c1c(O)c2c(c3c1OC1=C(C(=O)C(C)(C)C(=O)C1(C)C)[C@@H]3C(C)C)OC1=C(C(=O)C(C)(C)C(=O)C1(C)C)[C@@H]2C(C)C [Compound 2, Myrtucommulone-E] |  | 46.6 µM | 15 mm |  | 13 mm |  | 17 mm | 10 mm | 10 mm | significant antibacterial activity |  |  |  |
| C=C(C)[C@@H]1CC[C@]2(CO)CC[C@]3(C)[C@H](CC[C@@H]4[C@@]5(C)CC[C@H](O)C(C)(C)[C@@H]5CC[C@]43C)[C@@H]12 [Compound 15, betulin] |  |  |  | significant activity | 18 mm | significant activity | 16 mm | 15 mm |  |  |  |  |  |
| CC(C)C(=O)c1c(O)cc(O)c2c1OC1=C(C(=O)C(C)(C)C(=O)C1(C)C)C2C(C)C (centres unmarked) [Compound 4, Myrtucommulone-B] | strong inhibition | 40 ± 1 µM |  |  |  |  |  |  |  |  |  |  |  |
| Myrtucommulone-D [Compound 1] |  | 84.3 ± 3 µM | 15 mm |  |  |  | 15 mm | 12 mm |  | significant antibacterial activity | 24 mm |  |  |
| C[C@H]1[C@H](C)CC[C@]2(C(=O)O)CC[C@]3(C)C(=CC[C@@H]4[C@@]5(C)C[C@@H](O)[C@H](O)C(C)(C)[C@@H]5CC[C@]43C)[C@H]12 [Compound 11, corosolic acid] |  |  | 15 mm | significant activity | 17 mm | significant activity | 17 mm | 15 mm |  |  |  |  |  |
| C[C@@H](O)[C@H]1C(=O)N2C(C(=O)O)=C(SCCN=CN)C[C@H]12 [Imipenem, reference compound] |  |  | 33 mm |  | 24 mm |  | 25 mm | 27 mm | 30 mm |  | 33 mm |  |  |
| CC1(C)CC[C@]2(CO)CC[C@]3(C)C(=CC[C@@H]4[C@@]5(C)CC[C@H](O)C(C)(C)[C@@H]5CC[C@]43C)[C@@H]2C1 [Compound 13, erythrodiol] |  |  | 17 mm | significant activity | 12 mm | significant activity | 19 mm |  | 16 mm |  | 11 mm |  |  |
| CC(C)C(=O)c1c(O)c([C@H](C2=C(O)C(C)(C)C(=O)C(C)(C)C2=O)C(C)C)c(O)c([C@H](C2=C(O)C(C)(C)C(=O)C(C)(C)C2=O)C(C)C)c1O [Myrtucommulone-A] |  |  |  |  |  |  |  |  |  |  |  | significant antibacterial activity | powerful antioxidant properties |
| Cc1c(O)c(C(=O)C(C)C)c(O)c(C(C2=C(O)C(C)(C)C(=O)C(C)(C)C2=O)C(C)C)c1O (centres unmarked) [semimyrtucommulone] |  |  |  |  |  |  |  |  |  |  |  | less active | powerful antioxidant properties |
| CC(=O)c1c(O)c(C)c(O)c2c1OC1=CC(=O)C(C(C)=O)C(=O)C12C (centres unmarked) [Compound 9, usnic acid] |  |  | 16 mm |  | 17 mm |  | 17 mm | 15 mm | 11 mm |  | 15 mm |  |  |
| CC1(C)CC[C@]2(C(=O)O)CC[C@]3(C)C(=CC[C@@H]4[C@@]5(C)C[C@@H](O)[C@H](O)[C@@](C)(CO)[C@@H]5CC[C@]43C)[C@@H]2C1 [Compound 12, arjunolic acid] |  |  | 15 mm | significant activity | 12 mm | significant activity | 16 mm | 13 mm | 9 mm |  | 15 mm |  |  |
| CC[C@H](CC[C@@H](C)[C@H]1CC[C@H]2[C@@H]3CC=C4C[C@@H](O)CC[C@]4(C)[C@H]3CC[C@]12C)C(C)C [Compound 7, β-sitosterol] |  |  | 12 mm | significant activity | 16 mm | significant activity | 18 mm |  |  |  | 15 mm |  |  |

— patent US20080269510A1, “New alpha-glucosidase inhibitors and antibacterial compounds from Myrtus communis L” (priority 2005, published 2008)
